Earlier results, collected in patent US20240108682A1, “COMPOSITIONS AND METHODS FOR INCREASING GLUTATHIONE LEVELS” (Lile Method Research, LLC, priority 2022, published 2024).

Settings: Lu SC, Curr Top Cell Regul 36:95-116 (2000)

Structure (SMILES): N[C@@H](CCC(=O)N[C@@H](CS)C(=O)NCC(=O)O)C(=O)O [glutathione, L-γ-glutamyl-L-cysteinylglycine]
- half-life of glutathione in the blood: seconds to minutes
